Test results from US20260248869A1, “SILICONE GEL COMPOSITION OF WALNUT EXTRACT” (priority 2022, published 2026).

Test: Confocal optical microscopy of Juglone penetration depth in human skin
Type: in vitro ADME
Conditions: epidermal region; signal disappeared at greater depths
Text: The penetration in human skin was also studied by confocal microscopy, using the fluorescence of the Juglone molecule exciting it with light of 488 nm and observing its fluorescence in a window from 510 to 702 nm. For this penetration study, a Leica microscope, model SPE Confocal Microscope was used, with a 10×lens. The location of the Juglone molecules in depth was established with this instrument (in perpendicular direction to the skin surface). The accumulation of Juglone at different depth levels causes the appearance of areas with different fluorescence intensity and allows to observe directly where the molecule is retained. It must be noted that white Caucasian skins were chosen to prevent interferences of basal fluorescence and thus clearly observe the fluorescence of the Juglone molecule.
The transdermal permeation study was performed according to the “Guidance document for the conduct of skin absorption studies”. OECD series on testing assessment. Number 28. ENV/JM/MONO (2004) 2.5 Mar. 2004. Using Franz type cells, of 1.80 cm in diameter, and a surface of 2.54 cm^2. The permeation membrane used was human skin of the abdominal area (0.400 mm thick) from repair surgery and previously treated. This thickness covers the epidermis and dermis above the vascular plexus. […]

## O=C1C=CC(=O)c2c(O)cccc21 [Juglone, 5-hydroxy-1,4-naphthalenedione]
  Depth at which the specific fluorescence of Juglone is maintained: less than 120 μm
